Each structure is given as a SMILES string.

The compound `CC(C)(C)OC(=O)N1CCN(c2cccc(OC[C@@]3(C)Cn4cc([N+](=O)[O-])nc4O3)c2)CC1` had a melting point of 179.5 to 182 °C.
To `CC1(Cn2nc(COc3ccc(Cl)cc3)oc2=O)Cn2cc([N+](=O)[O-])nc2O1` (centres unmarked) belongs 64 to 66 °C; to `C[C@@]1(CN2CCN(Cc3ccc(C(F)(F)F)cc3)CC2)Cn2cc([N+](=O)[O-])nc2O1`, 93 to 95 °C; to `CC(C)(C)OC(=O)N1CCN(CC2Cn3cc([N+](=O)[O-])nc3O2)CC1` (centres unmarked), 185 to 188 °C (dec.).
`CC1(CCN2CCN(Cc3ccc(C(F)(F)F)cc3)CC2)Cn2cc([N+](=O)[O-])nc2O1` (centres unmarked) had a melting point of 148 to 149 °C.
Compound `CC1(CN2CCN(C(=O)OCc3ccccc3)CC2)Cn2cc([N+](=O)[O-])nc2O1.Cl` (centres unmarked) gave a melting point of 130.5 to 132.1 °C.
`O=[N+]([O-])c1cn2c(n1)O[C@H](CN1CCN(Cc3ccc(C(F)(F)F)cc3)CC1)C2` registered a melting point of 141 to 143 °C.
`C[C@]1(CN2CCC(N3CCN(c4ccc(OC(F)(F)F)cc4)CC3)CC2)Cn2cc([N+](=O)[O-])nc2O1` showed a melting point of 193 to 194 °C.
Compound `CN(CCOc1ccc(OC(F)(F)F)cc1)CC1(C)Cn2cc([N+](=O)[O-])nc2O1` (centres unmarked) had a melting point of 86.4 to 89.2 °C.
In turn, `CC1(Cn2nc(-c3ccc(C(F)(F)F)cc3)oc2=O)Cn2cc([N+](=O)[O-])nc2O1` (centres unmarked) had a melting point of 230 to 231 °C.
Compound `O=[N+]([O-])c1cn2c(n1)O[C@@H](CN1CCN(Cc3ccc(C(F)(F)F)cc3)CC1)C2` had a melting point of 149 to 150 °C.
The compound `O=C(OCc1ccc(C(F)(F)F)cc1)N1CCN(C[C@H]2Cn3cc([N+](=O)[O-])nc3O2)CC1` returned a melting point of 125 to 125.5 °C.
On to `CC1(CCCN2CCN(c3nc4ccccc4o3)CC2)Cn2cc([N+](=O)[O-])nc2O1` (centres unmarked), for which the melting point lay within 172 to 174.4 °C.
For `CNC(C1CCN(c2ccc(OC(F)(F)F)cc2)CC1)[C@]1(C)Cn2cc([N+](=O)[O-])nc2O1` (some centres unmarked), the melting point lay within 127.2 to 129.7 °C.
To `COc1ccc(NC(=O)N2CCN(C[C@@]3(C)Cn4cc([N+](=O)[O-])nc4O3)CC2)cc1` belongs 185.5 to 187.5 °C.
Compound `CC(C)COC(=O)N1CCN(CC2(C)Cn3cc([N+](=O)[O-])nc3O2)CC1` (centres unmarked) returned a melting point of 176.5 to 177.3 °C.
`C[C@]1(CN2CCN(C(=O)CCCc3ccc(Cl)cc3)CC2)Cn2cc([N+](=O)[O-])nc2O1` returned a melting point of 146 to 147 °C.
Regarding `Cc1nc(-c2ccc(Cl)cc2)sc1CN1CCN(C[C@@]2(C)Cn3cc([N+](=O)[O-])nc3O2)CC1`, the melting point fell in the range of 174.3 to 175.5 °C.
The figure for `CC1(CCN2CCN(C(=O)OCc3ccc(C(F)(F)F)cc3)CC2)Cn2cc([N+](=O)[O-])nc2O1` (centres unmarked) is 139 to 140 °C.
To `CC1(N2CCC(C(=O)c3ccc(OC(F)(F)F)cc3)CC2)Cn2cc([N+](=O)[O-])nc2O1` (centres unmarked) belongs 165 to 167 °C.
`CC(C)(C)OC(=O)N1CCN(C(=O)N2CCC3(CC2)Cn2cc([N+](=O)[O-])nc2O3)CC1`: the melting point was 260 to 265 °C (dec.).
`C[C@]1(COC(=O)N2CCN(Cc3ccc(Cl)cc3)CC2)Cn2cc([N+](=O)[O-])nc2O1`: the melting point fell in the range of 161 to 163 °C.
As for `CC1(CN2CCC(Oc3ccc(OC(F)(F)F)cc3)CC2)Cn2cc([N+](=O)[O-])nc2O1` (centres unmarked), the melting point lay within 117 to 119 °C.
To `C[C@]1(CN2CCN(C(=O)OCC=Cc3cccc(Cl)c3)CC2)Cn2cc([N+](=O)[O-])nc2O1.O=C(O)/C=C\C(=O)O` belongs 150 to 151 °C; to `O=C(Cc1ccc(C(F)(F)F)cc1)N1CCC2(CC1)Cn1cc([N+](=O)[O-])nc1O2`, 185 to 187 °C; to `CC1(CN2CCCN(C(=O)OCc3ccccc3)CC2)Cn2cc([N+](=O)[O-])nc2O1.Cl` (centres unmarked), 115 to 117 °C.
Take `CN(C(=O)N1CCN(C[C@@]2(C)Cn3cc([N+](=O)[O-])nc3O2)CC1)c1ccc(C(F)(F)F)cc1`: the melting point was in the range of 100.4 to 102.4 °C.
Take `CC1(CN2CCN(C(=S)Nc3ccc(Cl)cc3)CC2)Cn2cc([N+](=O)[O-])nc2O1` (centres unmarked): the melting point was 204 to 206 °C (dec.).
The figure for `COc1ccc(NC(=S)N2CCN(CC3(C)Cn4cc([N+](=O)[O-])nc4O3)CC2)cc1` (centres unmarked) is 189 to 191 °C (dec.).
Turning to `CC1(CN2CCN(C(=O)Oc3ccccc3)CC2)Cn2cc([N+](=O)[O-])nc2O1` (centres unmarked), the melting point lay in the range of 81 to 85 °C.
To `CC1(CCc2nnnn2-c2ccc(Cl)cc2)Cn2cc([N+](=O)[O-])nc2O1` (centres unmarked) belongs 198 to 200 °C; to `CC(C)(C)OC(=O)N1CCN(C(=O)OC[C@@]2(C)Cn3cc([N+](=O)[O-])nc3O2)CC1`, 211 to 212 °C; to `O=[N+]([O-])c1cn2c(n1)OC(CN1CCN(c3nc4ccccc4o3)CC1)C2` (centres unmarked), 206 to 209 °C (dec.).
The compound `C[C@]1(CN2CCN(c3ccc(Cl)cc3)CC2)Cn2cc([N+](=O)[O-])nc2O1` gave a melting point of 218 to 219.6 °C.
Compound `C[C@]1(CN2CCN(C(=O)OCC=Cc3cccc(C(F)(F)F)c3)CC2)Cn2cc([N+](=O)[O-])nc2O1.O=C(O)/C=C\C(=O)O` gave a melting point of 136 to 138 °C.
The compound `CC1(CN2CCC(C(=O)c3ccc(C(F)(F)F)cc3)CC2)Cn2cc([N+](=O)[O-])nc2O1` (centres unmarked) yielded a melting point of 172 to 174 °C.
To `COc1ccc(NC(=O)N2CCN(CC3(C)Cn4cc([N+](=O)[O-])nc4O3)CC2)cc1` (centres unmarked) belongs 167 to 168 °C; to `C[C@]1(COc2ccc(C3=CCN(C(=O)OCc4ccc(OC(F)(F)F)cc4)CC3)cc2)Cn2cc([N+](=O)[O-])nc2O1`, 174.3 to 174.8 °C.
Take `O=C(Nc1ccc(F)cc1)N1CCC2(CC1)Cn1cc([N+](=O)[O-])nc1O2`: the melting point is 238 to 240 °C (dec.).
To `C[C@]1(CN2CCN(C3CCN(Cc4ccc(OC(F)(F)F)cc4)CC3)CC2)Cn2cc([N+](=O)[O-])nc2O1` belongs 140 to 141 °C.
`C[C@]1(CN2CCC(OCc3ccc(Cl)c(Cl)c3)CC2)Cn2cc([N+](=O)[O-])nc2O1`: the melting point fell in the range of 132 to 136 °C.
Compound `CN(C)c1ccc(C(=O)N2CCN(CC3(C)Cn4cc([N+](=O)[O-])nc4O3)CC2)cc1` (centres unmarked) came in with a melting point of 204 to 207 °C.
With `CC1(COc2ccc(N3CCN(Cc4ccc(C(F)(F)F)cc4)CC3)cc2)Cn2cc([N+](=O)[O-])nc2O1` (centres unmarked), the melting point fell in the range of 171.8 to 173.1 °C.
Consider `CC1(CCSc2nc3ccccc3o2)Cn2cc([N+](=O)[O-])nc2O1` (centres unmarked), for which the melting point was 174 to 175 °C.
On to `CC1(CN2CCC(Cc3ccc(C(F)(F)F)cc3)CC2)Cn2cc([N+](=O)[O-])nc2O1` (centres unmarked), for which the melting point is 125 to 126 °C.
Turning to `C[C@]1(CN2CCC(N3CCN(C(=O)c4ccc(OC(F)(F)F)cc4)CC3)CC2)Cn2cc([N+](=O)[O-])nc2O1`, the melting point was in the range of 137 to 138 °C.
`C[C@]1(CN2CCN(C(=O)Nc3ccc(Cl)cc3)CC2)Cn2cc([N+](=O)[O-])nc2O1`: the melting point was 156 to 159 °C (dec.).
For the compound `CN(CCN(C)c1ccc(C(F)(F)F)cc1)C[C@@]1(C)Cn2cc([N+](=O)[O-])nc2O1`, the melting point is 135.5 to 137.5 °C.
`CC1(CN2CCN(C(=O)Nc3cccc(C(F)(F)F)c3)CC2)Cn2cc([N+](=O)[O-])nc2O1` (centres unmarked) had a melting point of 183 to 184 °C.
`C[C@]1(CN2CCN(N=Cc3ccc(C(F)(F)F)cc3)CC2)Cn2cc([N+](=O)[O-])nc2O1` [Example 505] registered a melting point of 188.4 to 191.2 °C.

One may read the melting point as the temperature, or range, at which the solid turns liquid.

The values above are taken from patent publication US7262212B2, “2,3-dihydro-6-nitroimidazo[2,1-b]oxazoles” (Otsuka Pharmaceutical Co., Ltd., priority 2002, dated 2007).
